This experiment deals with HuVEC cells. Description: VEGF-induced tube formation assay. As to conditions: VEGF (50 ng/ml), sulforaphane 5 uM. The format is cell-based, human. Here is the method: The tube formation assay is an in vitro a model of angiogenesis commonly used to measure the ability of endothelial cells to form “tubes” (i.e. three-dimensional structures that resemble vessel walls). Tube formation studies were conducted in a 96-well plate format using an in vitro angiogenesis assay kit from Trevigen Inc. (Trevigen, Gaithersburg, Md.). Prior to tube formation assay, Huvec cells were starved overnight in EGM-2 basal medium in the culture dish. […] The cells were harvested and counted, and a single cell suspension at 1×10^6 cells/ml was prepared. […] Tube formation was visualized using a fluorescence microscope (485 nm excitation/520 nm emission) at 200× total magnification. Numbers of branch points were counted for each of six randomly chosen fields, and then averaged for each condition. […] Statistical significance was determined using student t-test.
The tube formation was quantified and expressed as mean number of branching points per viewing field as shown in FIG. 5F for the high dose treatment using nanoparticles of ZnMoS4.
The Huvec cells were harvested, counted, and diluted in EBM-2 basal medium in the presence (Panels B-E) or absence (Panels A) of VEGF (50 ng/ml) and ZnMoS4 NPs at 50 ng/ml (Panel C) and 10 ng/ml (Panel D). […] F. Quantitative assessment of the tube formation was done by counting the average number of branch points per viewing field. […]

The structures appear in SMILES notation.

Here are results for one compound from patent US20160220500A1, “Targeting Intracellular Copper Ions for Inhibiting Angiogenesis Using Nanoparticles of Ternary Inorganic Metal Sulfide M1M2S4 (M1, independently, is Mg, Ca, Mn, Fe, or Zn; M2 = Mo or W) Compounds to Treat Metastatic Cancer” (KENT STATE UNIVERSITY, priority 2014, published 2016).

Consider `C[S+]([O-])CCCCN=C=S` (stereo not shown) [sulforaphane], for which the tube formation entry is on record as “prevented tube formation”.
